According to patent US9963518B2, “Cyclic oligosaccharides for use in the treatment and prevention of bacterial infection” (priority 2011, dated 2018):
“And” between values parts separate entries of the source, which are not always exact repeats. Equal values may be shown once.

Experiments:
Wza Y110G/K375C = Wza Y110G/K375C (Escherichia coli, UniProt Q9X4B7, K375C/Y110G); test: Single-channel electrical recording, blockers against mutant Wza Y110G/K375C; format: binding, E. coli
Description: The Wza pore was opened by replacing the tyrosines at position 110 that line the narrowest region of the lumen with glycine. To confirm that the currents observed indeed arose from the mutant pore, a cysteine was introduced in the α-helix barrel (Y110G/K375C) and would therefore yield a characteristic reversible blockade when derivatized with a suitable thiol-specific reagent.
The unitary conductance of the Y110G/K375C pore was determined as for wt-Wza, by measuring stepwise-insertion using the same technique referenced above. The mean open current of Y110G/K375C was determined to be +85±14.1 pA (+50 mV, n=31), corresponding to 1.70±0.28 nS (+50 mV, n=31) in conductance.
(§1) Thirteen commercial cyclodextrins (CDs) were tested for their ability to block WT-Wza and the mutant Y110G/K375C (Table 1) including, neutral, negatively charged or positively charged cyclodextrins. Testing was carried out using electrical channel recording in high salt buffer (2M KCl, 5 mM HEPES, 100 μM EDTA, 200 μM DTT) at pH 7.5.

E. coli strain E69 = test: Complement-mediated killing of bacteria in human serum; format: cell-based; conditions: for Complement-mediated killing of E69: 40% normal human serum, 1 h, 37° C.
Description: This assay measured the killing of bacteria by the compounds of the invention mediated by the human complement system found in serum (incubation time 1 h, RPMI 1640, 37° C.). 10^3 cells of E. coli strain E69 or CWG281 were cultured in 40% (v/v) normal human serum (NHS, 1 mL, TCS Biosciences, CR100) or deactivated human serum (DHS) in RPMI 1640 medium (Sigma Aldrich, R8758) in 1.5 mL tubes in the presence of different concentrations of am8γCD (compound 13) at 37° C. for 1 h or 4 h. DHS was generated by heating NHS at 56° C. for 30 min. For the one-hour experiment, a portion of each culture (50 μL) was then spread onto a freshly prepared LB-Agar plate; for the four-hour experiment, the culture was firstly diluted 100 times (0, 1, 10, 40 μM), 10 times (100 μM) or not diluted (300 μM and 1 mM), and then a portion of each resulting culture (50 μL) was then spread onto a freshly prepared LB-Agar plate. The plates were incubated at 37° C. for 10 h after which colonies were counted. The total colonies of each sample were calculated by colonies/plate multiplying by times of dilution. P values were calculated from a one-tailed Student's t-test.

WT Wza = WT Wza (Escherichia coli, UniProt Q9X4B7); test: Single-channel electrical recording, blockers against wt-Wza in planar lipid bilayers; format: binding, E. coli; conditions: 2M KCl, 5 mM HEPES, 100 μM EDTA, 200 μM DTT, pH 7.5
Description: The Wt Wza transporter was tested in single-channel recording, in accordance with the procedures of Naismith (Nature 2006, 444, 226-229) for its ability to form pores in planar lipid bilayers. Sequential insertions of channels in a single orientation were used to measure the conductance of a single channel because more than one channel could insert simultaneously during the first introduction, especially when protein molecules have not properly diffused yet. Repetition of experiments helped to verify conductance of a single channel. […] After collection of 37 insertions of wt Wza channel, the current of a single channel of wt Wza in 2 M KCl buffer was determined to be 1.89±0.01 pA (n=37) on average, corresponding to 18.9±0.1 pS (n=37) in conductance.
as §1

Question: Which Kd (Wza Y110G/K375C; Kd, interaction with mutant Wza, Y110G/K375C, +3 mV, n = 3, 2M KCl buffer pH 7.5) does the source give for `NC[C@H]1O[C@@H]2O[C@H]3[C@H](O)[C@@H](O)[C@@H](O[C@H]4[C@H](O)[C@@H](O)[C@@H](O[C@H]5[C@H](O)[C@@H](O)[C@@H](O[C@H]6[C@H](O)[C@@H](O)[C@@H](O[C@H]7[C@H](O)[C@@H](O)[C@@H](O[C@H]8[C@H](O)[C@@H](O)[C@@H](O[C@H]9[C@H](O)[C@@H](O)[C@@H](O[C@H]1[C@H](O)[C@H]2O)O[C@@H]9CN)O[C@@H]8CN)O[C@@H]7CN)O[C@@H]6CN)O[C@@H]5CN)O[C@@H]4CN)O[C@@H]3CN` [No. 12, Octacis (6-amino-6-deoxy)-γ-cyclodextrin] here?
Answer: 12.3 µM and 12 µM

Question: What about the “Interaction with mutant Wza” value (Wza Y110G/K375C; Y110G/K375C, 2M KCl, 5 mM HEPES, 100 μM EDTA, 200 μM DTT, pH 7.5) of the same molecule?
Answer: not observed^c

Question: And the “Binding strength relative to am7βCD” value (Wza Y110G/K375C; at different voltages)?
Answer: ≥ 10 times

Question: And the “Complement-mediated killing of E69” value (E. coli strain E69; 15 μM)?
Answer: 21%

Question: What about the “Complement-mediated killing of E69” value (E. coli strain E69; 100 μM) of the same molecule?
Answer: 51%

Question: And the “Complement-mediated killing of E69” value (E. coli strain E69; 1 mM)?
Answer: 84%

Question: What about the “Growth of E69” value (E. coli strain E69; 1 mM, normal human serum, incubation 4 h) of the same molecule?
Answer: completely inhibited the growth

Question: And the EC50 (E. coli strain E69; Escherichia coli, E69, normal human serum, incubation 4 h, n=3, read-out: Concentration required to kill half of the bacteria (EC50))?
Answer: 3.2 ± 0.5 µM

Question: What about the “Effect on survival of E69 in the absence of NHS” value (E. coli strain E69; compound alone at 100 μM or 1 mM, no normal human serum) of the same molecule?
Answer: no significant effect

Question: And the “Interaction with WT Wza” value (WT Wza)?
Answer: not observed
